Results as given in US20160331853A1, “COMPOSITIONS FOR RADIOTHERAPY AND USES THEREOF” (The Trustees of Columbia University in the City of New York, priority 2014, published 2016).
Several values for one entry are separate records, joined by “and”; a condition that tells them apart may be missing. Equal entries are not always repeated.

What was measured:
[1] = Example 14: talc bound to HRP- and cold Avidin, 48 hours incubation in PBS containing 10% FBS, OD 450 nm; format: physicochemical; details: 48 hours in PBS containing 10% FBS
Procedure: Purpose: To check how strong the conjugate of hot/cold Avidin to Talc is. […] Absorbance will be checked twice—once before washing with PBS containing 10% FBS and after 48 hours, washing will be done.
1. Prepare 10 mL of 40 ng/mL (or 260 μM) HRP Avidin in 1×PBS using 5.75 mg/mL or 32.5 uM of HRP Avidin stock solution.
6. Weigh 8 mg of Avidin (cold Avidin), then resuspend it in 2 mL of PBS containing 40 ng/mL of “hot” Avidin. So the solution will now be 40 ng/mL hot Avidin+4 mg/mL of Cold Avidin. Label this tube as #1.
14. […] Two identical microplates need to be set up, labeling them as: plate#I and plate#2. Design of the plate:
3. Wash both plates 3× with 300 μL PBS.
5. […] Mix constantly, cover plate with Aluminum foil.
6. Add 100 μL of TMB to samples in plate #1.
8. After incubation with TMB is over, add 100 μL of Stop Solution 2.
9. Read absorbance at 450 nm using the plate reader.
3. Collect 100 μL supernatant from samples except native controls and load on same plate.
4. Wash plate except supernatant samples 3× with 300 μL PBS.
6. Add 100 μL of TMB to all samples in plate#2.
8. After incubation with TMB is over add 100 μL of Stop Solution 2.

[2] = Example 4: amount of Avidin saturating 100 mg talc, Pierce total protein assay of supernatant; format: binding
Source text: 2. Collect the supernatant from each tube but discard the pellet.
3. Run the Pierce total protein assay using the following dilutions of the collected supernatant.
4. Read plate in the plate reader (absorbance assay) at 660 nm wavelength.

[3] = Example 2: Avidin and Avidin-Rhodamine binding to talc after PBS and 0.2% EDTA washes, fluorescent microscope; details: 100 mg talc; 3x PBS, 3x 0.2% EDTA washes
Procedure: The resulting mixtures were then washed with PBS and then washed with 0.2% EDTA.
3. Mix 1 mL of 100 μM of Avidin with 500 μL of 30.3 μM of Avidin Rhodamine (keep lights off).
4. […] Mix well to bring the dry talc powder to evenly distributed reaction solution.
8. Place tubes on the rotator and incubate overnight at 4° C.
5. Continue to wash all “b” labeled tubes with 0.2% EDTA. Wash 3× in 0.5 mL EDTA.
7. View slides under fluorescent microscope.

[4] = Example 12: hot and cold Avidin mix binding to talc, repeat with controls, OD 450 nm
Procedure: The following Example repeated the hot/cold experiment shown in Example 10, with the addition of multiple controls.
1. Prepare 10 mL of 40 ng/mL (or […]) HRP Avidin in 1×PBS using 5.75 mg/mL or 32.5 μM of HRP Avidin stock solution.
6. Weigh 8 mg of Avidin (cold Avidin), then resuspend it in 2 mL of PBS that contains 40 ng/mL of “hot” Avidin. So the solution will now be 40 ng/mL hot Avidin+4 mg/mL of Cold Avidin. Label this tube as #1.
7. Make 3 mL of 1:10 dilution of solution in Tube #1 and make labeled Tube #2 containing 2.7 mL of 40 ng/mL in Hot Avidin solution in PBS+300 μL of Tube #1. The solution in the tube will contain 40 ng/mL of Hot Avidin+400 μg of Cold Avidin.
8. Make 1:2 dilution of solution in Tube #2 using as a diluted solvent of […] of Hot Avidin in PBS. Added 1 mL of Hot Avidin+1 mL of Tube #2. The final concentration will be 40 ng/mL of Hot Avidin+200 μg/mL of Cold Avidin. Label this tube as Tube #3.
9. Make 1:2 dilution of solution in Tube #3, using as a solvent of 40 ng/mL Hot Avidin in PBS Prepare 2 mL of solution: 1 mL of 40 ng/mL of Hot Avidin in PBS+1 mL of Tube #3 The final concentration will be 40 ng/mL of hot Avidin+100 μg/mL of Cold Avidin. Label this tube as Tube #4.
3. Wash the plate 3× with 300 μL PBS containing 10% FBS.
7. Add 100 μL of Stop Solution 2.
8. Read absorbance at 450 nm using the plate reader.

[5] = Example 3: binding Avidin to 100 mg sterile talc, Pierce 660 nm total protein assay of supernatants and washes
Procedure: Collect the supernatant liquid from two tubes containing the two highest concentrations of Avidin at varying points.
4. Run total protein assay using Pierce microplate kit and read plate in plate reader.
6. Wash all tubes in PBS two times, collecting the supernatant liquid from each wash ONLY from the two highest concentrations of Avidin (tubes labeled 1-2b, 1-2c, and 2-2b, 2-2c).
7. Continue to wash 3× with 0.5 mL of 0.2% EDTA.
8. Collect the supernatant from each wash and transfer to the new tubes only from the original tubes with the highest concentration of Avidin (50 μM and 5 μM). Collect only the FIRST wash with EDTA solution for the other tubes.
10. Run the total protein assay (see e.g., Example 1) using all the collected supernatant liquid.
The shape is similar to a nugget, and the calculations will substitute it's geometry with spheres. […] Less than 5% is below that range, and above that range.

[6] = Coupling of avidin to talc, binding capacity (general description)

Which “stability of binding of Avidin to talc” value [1] does the source give for “Avidin: Avidin from egg white (Sigma, Cat. A9275), unlabeled (cold) Avidin” here?
The value was “unchanged at 48 hours”.

And the “Avidin binded with talc” value ([2]; 330 μg/ml Avidin added)?
Its value is 110.4 µg/mL.

And the Avidin in supernatant ([2]; 330 μg/ml Avidin added)?
The Avidin in supernatant was 219.6 μg, ml.

And the “Avidin per talc surface” value ([2]; 330 μg/ml Avidin added)?
The value was 1.5 μg/cm2.

What about the “Avidin binded with talc” value ([2]; 3300 μg/ml Avidin added) of the same substance?
Its value is 2452.7 µg/mL.

And the Avidin in supernatant ([2]; 3300 μg/ml Avidin added)?
Its Avidin in supernatant is 847.3 μg, ml.

What about the “Avidin per talc surface” value ([2]; 3300 μg/ml Avidin added) of the same substance?
Its value is 33.0 μg/cm2 and 33 μg/cm2.

What about the “Avidin binded with talc” value ([2]; 6600 μg/ml Avidin added) of the same substance?
The value was 4631.5 µg/mL.

What about the Avidin in supernatant ([2]; 6600 μg/ml Avidin added) of the same substance?
The Avidin in supernatant was 1968.5 μg, ml.

And the “Avidin per talc surface” value ([2]; 6600 μg/ml Avidin added)?
Its value is 62.3 μg/cm2.

And the “Avidin binded with talc” value ([2]; 13200 μg/ml Avidin added)?
Its value is 7952.7 µg/mL.

What about the Avidin in supernatant ([2]; 13200 μg/ml Avidin added) of the same substance?
Its Avidin in supernatant is 5247.3 μg, ml.

And the “Avidin per talc surface” value ([2]; 13200 μg/ml Avidin added)?
Its value is 106.9 μg/cm2.

What about the “Avidin binded with talc” value ([2]; 19800 μg/ml Avidin added) of the same substance?
The value was 12166.7 µg/mL.

What about the Avidin in supernatant ([2]; 19800 μg/ml Avidin added) of the same substance?
Its Avidin in supernatant is 7633.3 μg, ml.

What about the “Avidin per talc surface” value ([2]; 19800 μg/ml Avidin added) of the same substance?
The value was 163.5 μg/cm2.

And the “saturation of talc particles” value ([2]; increasing concentrations of Avidin)?
The value was “not fully saturated”.

What about the “binding to talc after washing” value [3] of the same substance?
The value was “remained bound to talc despite multiple washes”.

And the “Efficiency of binding, OD” value ([4]; 1 mg talc, Cold Avidin only 100 ug/mL)?
Its value is 0.31 OD.

What about the “Efficiency of binding, OD” value ([4]; 1 mg talc, Cold Avidin only 200 ug/mL) of the same substance?
The value was 0.27 OD.

What about the “Efficiency of binding, OD” value ([4]; 1 mg talc, Cold Avidin only 400 ug/mL) of the same substance?
The value was 0.3 OD.

And the “Efficiency of binding, OD” value ([4]; 1 mg talc, Cold Avidin only 4 mg/mL)?
The value was 0.33 OD.

What about the “Efficiency of binding, OD” value ([4]; 5 mg talc, Cold Avidin only 100 ug/mL) of the same substance?
Its value is 1.38 OD.

And the “Efficiency of binding, OD” value ([4]; 5 mg talc, Cold Avidin only 200 ug/mL)?
The value was 1.4 OD.

What about the “Efficiency of binding, OD” value ([4]; 5 mg talc, Cold Avidin only 400 ug/mL) of the same substance?
Its value is 1.01 OD.

What about the “Efficiency of binding, OD” value ([4]; 5 mg talc, Cold Avidin only 4 mg/mL) of the same substance?
Its value is 1.23 OD.

And the “AVIDIN in supernatant after incubation” value ([5]; 198.4 μg Avidin + 100 mg talc)?
Its value is 13.7 μg/0.5 ml.

What about the “Avidin binded to talc” value ([5]; 198.4 μg Avidin + 100 mg talc) of the same substance?
The value was 184.7 µg.

And the “Saturation of AVIDIN to the combine surface of 100 mg talc” value ([5]; 198.4 μg Avidin added)?
Its value is 2.48 μg/cm^2.

And the “AVIDIN in supernatant after incubation” value ([5]; 198.4 μg Avidin in 0.5 ml + 100 mg talc)?
The value was 27.4 µg/mL.

What about the “Amount of Avidin removed by wash” value ([5]; 198.4 μg, 1st wash with EDTA) of the same substance?
The value was 15.8 µg/mL.

And the “Amount of Avidin removed by wash” value ([5]; 198.4 μg, 1st wash with PBS)?
The value was 31.4 µg/mL.

What about the “Amount of Avidin removed by wash” value ([5]; 198.4 μg, 2nd wash with EDTA) of the same substance?
The value was 19.8 µg/mL.

What about the “Amount of Avidin removed by wash” value ([5]; 198.4 μg, 2nd wash with PBS) of the same substance?
Its value is 27.6 µg/mL.

And the “Amount of Avidin removed by wash” value ([5]; 198.4 μg, 3rd wash with EDTA)?
The value was 13 µg/mL.

And the “Amount of Avidin removed by wash” value ([5]; 198.4 μg, 3rd wash with PBS)?
Its value is 32.7 µg/mL.

What about the “AVIDIN in supernatant after incubation” value ([5]; 1650.3 μg Avidin + 100 mg talc) of the same substance?
The value was 1185 μg/0.5 ml.

And the “Avidin binded to talc” value ([5]; 1650.3 μg Avidin + 100 mg talc)?
The value was 465.3 µg.

And the “Saturation of AVIDIN to the combine surface of 100 mg talc” value ([5]; 1650.3 μg Avidin added)?
The value was 6.25 μg/cm^2.

And the “AVIDIN in supernatant after incubation” value ([5]; 1650.3 μg Avidin in 0.5 ml + 100 mg talc)?
The value was 2370 µg/mL.

What about the “Amount of Avidin removed by wash” value ([5]; 1650.3 μg, 1st wash with EDTA) of the same substance?
The value was 13.2 µg/mL.

And the “Amount of Avidin removed by wash” value ([5]; 1650.3 μg, 1st wash with PBS)?
The value was 307.4 µg/mL.

And the “Amount of Avidin removed by wash” value ([5]; 1650.3 μg, 2nd wash with EDTA)?
Its value is 12.3 µg/mL.

What about the “Amount of Avidin removed by wash” value ([5]; 1650.3 μg, 2nd wash with PBS) of the same substance?
The value was 67.3 µg/mL.

And the “Amount of Avidin removed by wash” value ([5]; 1650.3 μg, 3rd wash with EDTA)?
The value was 13.2 µg/mL.

And the “Amount of Avidin removed by wash” value ([5]; 1650.3 μg, 3rd wash with PBS)?
Its value is 40.3 µg/mL.

What about the “release of Avidin from talc surface during washes” value ([5]; 3x PBS, 3x 0.2% EDTA) of the same substance?
Its value is “Only first wash removed quantifiable amounts of Avidin from talc surface”.

What about the “saturation of talc particles” value ([5]; highest concentration of Avidin (50 μM), 100 mg talc) of the same substance?
The value was “not fully saturated”.

What about the “avidin bound by talc” value [6] of the same substance?
Its value is > 2 nanograms of avidin per mg of talc.
